Assay results taken from US8580789B2, “Treating glaucoma” (The Cleveland Clinic Foundation, priority 2007, dated 2013).

Legend:
cortical neurons = conditions: cited from earlier work; for Protection of neurons from the neurotoxic effect of 3-deoxyglucosone and methylglyoxal: cotreatment with aminoguanidine, pretreatment with N-acetylcysteine
[1] = test system: internal limiting membrane of the retina; conditions: direct application; white light for 3 minutes; cited from earlier work
porcine corneas = assay: Corneal surface wave elastometry after standard crosslinking or flash-linking; conditions: group 1
Description: To investigate comparative cornea stiffness values in porcine corneas after standard crosslinking and a new, rapid method of crosslinking (flash-linking) using surface wave elastometry (Sonic Eye, PriaVision Inc, Menlo Park, Calif.).
Six porcine eyes were treated using a UVA double diode with 4.2 mW/cm2 UVA at 370 nm while applying 0.1% riboflavin-5-phosphate drops to the central cornea every 5 minutes as a photosensitizer for 30 min (group 1). The next 6 porcine corneas were treated with a single application of a customized photoactive crosslinking agent (PriaVision Inc) and 30 seconds of UVA light at the same power and wavelength (group 2). Following both experimental treatments, the Sonic Eye system was used to measure ultrasound surface wave propagation time between two fixed-distance transducers applied to the cornea along central horizontal and vertical positions. Intraocular pressure was continuously monitored using a digital pressure monitor display (Infinity SC9000XL, Drager medical, Lubeck, Germany) after vitreous chamber cannulation with a 23-gauge needle.

retinal ganglion cells = conditions: by inhibiting nitric oxide synthase; cited from earlier work
porcine sclera = conditions: scleral strips; 1 hour glutaraldehyde, 5 days glyceraldehydes, 30 minutes UVA for riboflavin/UVA; cited from earlier work
human sclera = conditions: scleral strips; 1 hour glutaraldehyde, 5 days glyceraldehydes, 30 minutes UVA for riboflavin/UVA; cited from earlier work
human PS = conditions: strips incubated in 0.5 M agent over 5 days; cited from earlier work
human LC = conditions: strips incubated in 0.5 M agent over 5 days; cited from earlier work
[2] = test system: optic nerve/lamina cribrosa complex; assay: Surface wave velocity (stiffness) across the optic nerve/lamina cribrosa complex of whole globes, Sonic Eye elastometer; set-up: species or system porcine; conditions: Example 1 group 2
Description: (§1) Surface wave velocity (SWV) is a measure of tissue stiffness, and is performed by detecting the velocity of an ultrasonic wave between 2 points (Sonic Eye, Priavision, Menlo Park, Calif.) (Dupps W J, et al., J Refract Surg; 23: 66-75 (2007)). 19 porcine eyes were divided into 2 groups. In group 1 (6 eyes), the SWV across the exposed optic nerve/lamina cribrosa complex (ON/LCC) was initially measured at the eyes' physiologic IOP and at 100 mmHg. The porcine globes were cannulated with IV tubing to facilitate the change in IOP. In group 2 (13 eyes), the pre-treatment SWV was measured across the same region and atop the peri-papillary sclera, after which both regions were treated with riboflavin 1%, Q 5 min×6, and UVA irradiation (˜365 nm at 3 mW/cm^2) for 30 min per eye. The SWV was then re-measured in each eye at the pre-treatment IOP and at 100 mmHg.
(§2) An annular sponge soaked in GTA was exposed to the peripapillary sclera for ˜30 minutes, and not the ON/LCC. Measurements were repeated as above, but also along each quadrant of peripapillary sclera to ensure uniformity and symmetry of crosslinking around the ON/LCC. The results are summarized as follows:
(§3) Eighteen porcine globes were divided evenly into 3 groups. The optic nerves were transected to expose the ON/LC, and each globe was infused through an in-line pressure transducer for direct IOP control. Surface wave velocity, a non-destructive measure of tissue stiffness, was measured across the ON/LC and PS before and after collagen crosslinking at IOP of 10 and 30 mmHg (groups 1 and 2) and at each globe's preinflation IOP and 80 mmHg (group 3). In group 3, papillary strain was measured by analyzing the displacement of fiducial marks immediately adjacent to the ON/LC using digital photography.
(§4) Surface wave velocity (SWV) is a measure of tissue stiffness that has been used in dermatologic applications to measure age-related changes (Potts R O, et al., J Invest Dermatol.; 82(1):97-100 (1984); Potts R O, et al., J Biomech.; 16(6):365-372 (1983); Davis B R, et al., Exp Gerontol; 24(3):201-210 (1989)), softening effects of tissue hydration and skin creams (Vexler A, et al., J Invest Dermatol; 113(5):732-739 (1999)), and sclerosing effects of radiation on breast skin (Gorodetsky R, et al., Int J Radiat Oncol Biol Phys.; 45(4):893-900 (1999)). When acoustic waves in the 0.5 to 30 kHz frequency range are used, propagation speed in skin is related to the density and stiffness of the tissue (Pereira J M, et al., J Biomech.; 23(8):745-751 (1990)). A prototype handheld ocular surface elastometer (Sonic Eye, Priavision, Menlo Park, Calif.) with an operating frequency within this range (4 kHz) and a fixed 4.5 mm wave propagation distance has been described in detail elsewhere (Dupps W J Jr, et al., J Refract Surg.; 23(1):66-75 (2007)). The Sonic Eye was used in this study as a non-destructive means of measuring local in situ tissue stiffness across and around the optic nerve head.
Eighteen porcine eyes were obtained from a local abattoir (Heffelfingers Meats, Inc., Jeromesville, Ohio) and were used within 24 hours postmortem. The optic nerves were dissected under microscopic visualization to expose the ON/LC (FIG. 1). […]
(§5) Three experimental groups of 6 eyes each were defined. In group 1, SWV across the optic nerve/lamina cribrosa complex and peripapillary scleral regions of interest were measured at 10 and 30 mmHg to represent a physiological range of pressures. […]

peripapillary sclera = assay: Surface wave velocity (stiffness) of the peripapillary sclera of whole globes, Sonic Eye elastometer; set-up: species or system porcine; conditions: riboflavin 1% + UVA 30 min
Description: as §1, §2, §3, §4
Eighteen porcine eyes were obtained from a local abattoir (Heffelfingers Meats, Inc., Jeromesville, Ohio) and were used within 24 hours postmortem. The optic nerves were dissected under microscopic visualization to expose the ON/LC (FIG. 1). […] Replicate SWV measurements were obtained at a rate of 1 per second with a triggering foot pedal to produce at least 5 measurements that were subsequently averaged for each region of interest. A PC software interface converted the time-of-flight data to velocity in meters per second (m/s), and the velocity data were exported to Excel (v. 11, SP2; Microsoft Corp, Redmond, Wash.) and Minitab (v. 14.20; Minitab Inc, State College, Pa.) for statistical analysis.
as §5

rabbit eyes = conditions: 370 nm light at 4.2 mW/cm2; cited from earlier work
keratoconus = conditions: topical riboflavin with UVA light exposure; cited from earlier work

O=CC(=O)C[C@H](O)[C@H](O)CO [3-deoxyglucosone]
Neurotoxic effect to cortical neurons (cortical neurons): neurotoxic effect

CC1(C)C(/C=C/C=C/C=C/C=C2\N(CCCCS(=O)(=O)O)c3ccc4ccccc4c3C2(C)C)=[N+](CCCCS(=O)(=O)[O-])c2ccc3ccccc3c21 [ICG, indocyanine green]
Stiffness of the internal limiting membrane of the retina [1]: increase the stiffness

CC(=O)N[C@@H](CS)C(=O)O [N-acetylcysteine]
Protection of neurons from the neurotoxic effect of 3-deoxyglucosone and methylglyoxal (cortical neurons): protected the neurons

Cc1cc2nc3c(=O)[nH]c(=O)nc-3n(C[C@H](O)[C@H](O)[C@H](O)COP(=O)(O)O)c2cc1C [UVA+riboflavin, riboflavin-5-phosphate]
Mean surface wave velocity of cornea after crosslinking (porcine corneas; 0.1% riboflavin-5-phosphate drops every 5 min, UVA 4.2 mW/cm2 370 nm 30 min): 111.35±2.16 m/s
Increase of mean surface wave velocity of cornea after crosslinking (porcine corneas; from 93.6 to 111.3 m/s, p=0.032): 17.7 units

N=C(N)NN [aminoguanidine]
Protection of neurons from the neurotoxic effect of 3-deoxyglucosone and methylglyoxal (cortical neurons): protected the neurons
Neuroprotective effect to retinal ganglion cells (retinal ganglion cells): neuroprotective effect

O=CC(O)CO (stereo not shown) [glyceraldehydes, glyceraldehyde]
Rise in porcine scleral stress (rigidity) (porcine sclera): 5 ×
Rise in human scleral stress (rigidity) (human sclera): 34%
Increase of stress with 20% strain of human PS (human PS): > 2 fold
Increase of stress with 20% strain of human LC (human LC): > 1.5 fold

CC(=O)C=O [methylglyoxal]
Increase of stress with 20% strain of human PS (human PS): > 3 fold
Increase of stress with 20% strain of human LC (human LC): > 2 fold

Cc1cc2nc3c(=O)[nH]c(=O)nc-3n(C[C@H](O)[C@H](O)[C@H](O)CO)c2cc1C [riboflavin/UVA, riboflavin]
Change of SWV of the ON/LCC upon raising the IOP to 100 mmHg after crosslinking ([2]; riboflavin 1% + UVA 30 min, p=0.1): no change
SWV (stiffness) of the ON/LCC after crosslinking ([2]; riboflavin 1% Q 5 min x6 + UVA ~365 nm 3 mW/cm^2 30 min to ON/LCC and PS, pre-treatment IOP, mean±SD): 32.8±1.1 m/s
SWV of the peripapillary sclera after crosslinking at 100 mmHg (peripapillary sclera; Example 1 group 2, IOP 100 mmHg): 63.5±1.8 m/s
SWV (stiffness) of the peripapillary sclera after crosslinking (peripapillary sclera; Example 1 group 2, pre-treatment IOP, mean±SD): 55.7±1.5 m/s
Stiffness of Peripapillary Sclera, Post-crosslinking Mean ± SD (peripapillary sclera; Example 3 Group 1, Low IOP 10 mmHg): 85.5 ± 13.5 m/s
Rise in porcine scleral stress (rigidity) (porcine sclera): 1.5 ×
Rise in human scleral stress (rigidity) (human sclera): 29%
Retinal cell death after riboflavin and irradiation (rabbit eyes): retinal pigment epithelium (RPE), photoreceptor and outer nuclear layer death
Clinical effect in keratoconus (keratoconus): used effectively as a stabilizing treatment for keratoconus
